Laboratory results as given in US9333189B2, “Taxane- and taxoid-protein compositions” (ONCBIOMUNE, INC., priority 2010, dated 2016).
Where two headings read alike, the source gives them in different places.

Tested on: MCF-7 cells
Assay: 3H-thymidine incorporation cell growth assay, MCF-7
Type: cell-based, Human
[1] = daunorubicin bound to metal-transferrin by glutaraldehyde, read-out: IC50 of Drugs bound by a Glutaraldehyde Reaction to the Surface of Transferrin (M): Daunorubicin
[2] = metal-transferrin without drug, read-out: IC50 of Drugs bound by a Glutaraldehyde Reaction to the Surface of Transferrin (M): No Drug

Description: Human cancer cell lines were obtained from the American Type Culture Collection (Rockville, Md.); the NCI/Adr-Res cell line came from the National Cancer Institute (Bethesda, Md.). The cancer cell lines were maintained in alpha-MEM supplemented with 10% fetal calf serum, 1 mM glutamine and 0.05 mg/mL gentamicin (Life Technologies, Inc., Frederick, Md.) in 5% CO2 at 37° C. Cells were removed from cell culture flask or plate by trypsin-EDTA (0.05% trypsin and 0.53 mM EDTA) digestion.
Cell growth was measured with a ^3[H]-thymidine incorporation assay. Cancer cells were plated into each well of a 96-well cell culture plate as noted in Table 2 (e.g., MCF-7 cells were plated at 3000 cells/well) and incubated overnight. Culture media was replaced with media containing increasing concentrations of transferrin based drugs, and the cells were incubated with these drugs for 3 days. Then, ^3[H]-thymidine (0.1 uCi/well) was added to each well for the last 16 hours of incubation. The cells were removed from the plate by trypsin-EDTA digestion and harvested onto a glass-fiber filter (Skatron basic96 Harvester, Shatron Inc., Sterling, Va.). The radioactivity incorporated into the cellular DNA was determined by liquid scintillation counting (LS 6500, Beckman Co., Fullerton, Calif.). Cell proliferation was quantitated by ^3[H]-thymidine incorporation and expressed as a percentage of the untreated control. The experiments were repeated a minimum of three times independently.

IC50 [2] [M]	Substance	IC50 [1] [M]
–	Fe-tf Daunorubicin: Daunorubicin bound by a glutaraldehyde reaction to the surface of iron-transferrin	2.2e-07
–	Ga-tf Daunorubicin: Daunorubicin bound by a glutaraldehyde reaction to the surface of gallium-transferrin	3.6e-07
3.4e-06	Ga-tf: Human transferrin loaded with gallium, no drug	–
–	In-tf Daunorubicin: Daunorubicin bound by a glutaraldehyde reaction to the surface of indium-transferrin	2.7e-08
2.7e-06	In-tf: Indium-transferrin, no drug	–
